This is an account of results in patent EP1935887A1, “Heterocyclic substituted carbonyl derivatives and their use as dopamine D3 receptor ligands” (Aventis Pharmaceuticals Inc., priority 2001, dated 2002).

The assay has as its target T1, CLONED HUMAN ALPHA-1A ADRENERGIC RECEPTORS (α1a) (Homo sapiens, UniProt P35348).
T1 construct: expressed in transfected cells; host or cells: CHO cells, G418-resistant clone #7, vector pcDNA3; membranes
T1 sequence (P35348 1-466): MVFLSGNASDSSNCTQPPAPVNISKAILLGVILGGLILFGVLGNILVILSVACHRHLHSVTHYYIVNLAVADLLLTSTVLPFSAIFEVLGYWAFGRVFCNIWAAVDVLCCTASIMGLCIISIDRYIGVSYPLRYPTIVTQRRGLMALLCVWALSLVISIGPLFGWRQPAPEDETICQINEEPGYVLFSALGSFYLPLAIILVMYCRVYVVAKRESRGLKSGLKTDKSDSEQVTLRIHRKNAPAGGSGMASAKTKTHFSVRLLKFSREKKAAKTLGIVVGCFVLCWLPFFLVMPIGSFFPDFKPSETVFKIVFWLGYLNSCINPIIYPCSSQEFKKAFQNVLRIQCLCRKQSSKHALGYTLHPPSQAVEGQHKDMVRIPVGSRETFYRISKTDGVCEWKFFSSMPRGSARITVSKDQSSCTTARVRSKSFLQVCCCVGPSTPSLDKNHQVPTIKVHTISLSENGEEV
The assay can be described thus: [3H]Prazosin binding to cloned human alpha-1A adrenergic receptors expressed in CHO cells. An excerpt:
^3H]PRAZOSIN BINDING TO CLONED HUMAN ALPHA-1A ADRENERGIC RECEPTORS (α1a) EXPRESSED IN CHINESE HAMSTER OVARY CELLS (CHO)
• purpose: This in vitro assay is designed as a screen to identify compounds displaying a affinity for the human α1a adrenoceptor subtype expressed in the membrane fragments of CHO cells. The assay measures the ability of the test compounds to displace [^3H] prazosin from α1a sites. The identification of multiple vascular α1-addrenoceptors (α1a, α1b, α1d) in vitro has provided impetus to define the role(s) of these subtypes in cardiovascular regulation in vivo (Vargas and Gorman, 1995). […] Therefore, the binding of compounds to α1a adrenergic receptors is believed to be a good measure of a compound's potential to cause orthostatic hypotension and sedation as side effects. Prazosin is a potent antagonist of the human α1a-adrenoceptor subtype, which has been cloned and is expressed in the membrane fragments of CHO cells. • hα1areceptor: The cloning of the human α1a cDNA was accomplished first by screening a human prostate cDNA library (Clontech), from which a portion of the coding region was obtained. This DNA fragment was then used to screen a human leukocyte genomic library (Clontech), and the rest of the coding sequence was obtained. Later these two fragments were spliced together. The entire coding sequence was then fully sequenced including matching PCR sequence with original genomic coding sequence, thus ensuring splice sites were joined correctly (Schwinn et al., 1995). Once sequenced, the gene was subcloned into the expression vector pcDNA3 (Invitrogen). Plasmid DNA was then used for transfection into CHO cells and G418 resistant clones were isolated. A clone expressing high levels of the hα1a receptor (as determined by mRNA and receptor binding data) was chosen and pharmacologically characterized. • Culture Media: Media Ingredients for Adherent α1a expressing CHO Culture: • A. HAM's F-12 (Cellgro) • B. 10% 0.2 micron filtered Fetal Bovine Serum (FBS)(Cellgro) • C. 1% 0.2 micron filtered Penicillin-Streptomycin (Cellgro) • D. G418 0.2 micron filtered (Geneticin 400µg/ml)(Cellgro) Cells are cultured using established methods and procedures in either 150x25mm culture plates (scale up to 100 plates) or a combination of these plates and 70 roller bottles. One culturing/harvest cycle typically requires 2 weeks and yields between 100-400mg protein. Plates or bottles are incubated at 37°C + 5% CO2. • Storage: Cells are harvested by mechanical scraping, washed using PBS, collected in 250ml Corning polypropylene centrifuge tubes, spun down (1500RPM) and resuspended in dH2O 10% DMSO (final volume per harvest is approximately 50ml). Protein determination is made using the Biorad DC Assay Kit. […] Bd. = 50µl 10µM phentolamine+50 µl [^3H]prazosin+100µl membrane Test Cpd. = 50µl compound + 50µl [^3H]prazosin + 100µl membrane Compounds to be evaluated are weighed out to yield a 10 mM stock solution in DMSO in a 24 well polystyrene plate. This is diluted to a 0.5 mM stock in dH2O. Serial dilutions in Buffer A are made from which 50 µl additions to the plate are made in duplicate in order to achieve the final concentrations desired. Typically, one 96 well plate is used to evaluate 11 compounds at 4 concentrations (10^-6-10^-9 M) in duplicate. Total binding and nonspecific binding are determined in quadruplicate. Usually one standard is run with each assay. [^3H]Prazosin is made up in Buffer A such that when 50 µl are added per well the final concentration is 1.0 nM in a final assay volume of 200 µl. The final concentration should be verified by running a sample in a scintillation counter prior to adding the [^3H]prazosin to the 96 well plate. Note: The radioactivity should be prepared just before the additions are made so that it is not allowed to sit on the bench for very long. […]

Consider `C[C@H]1CC[C@H](NC(=O)CCCN2CCN(c3csc4cc(C(F)(F)F)ccc34)CC2)CC1` [compound 826804], for which the “halpha1 % I h=human” value (@ 1 uM) is 32.8% Inh @ 1 uM.

Regarding `CCOC(=O)[C@H]1CC[C@H](NC(=O)CCCN2CCN(c3csc4cc(C(F)(F)F)ccc34)CC2)CC1` [compound 826805], the “halpha1 % I h=human” value (@ 1 uM) was 27.8% Inh @ 1 uM.

For `CC[C@H]1CC[C@H](NC(=O)CCCN2CCN(c3csc4cc(C(F)(F)F)ccc34)CC2)CC1` [compound 826806], the “halpha1 % I h=human” value (@ 1 uM) was determined as 10.3% Inh @ 1 uM. On the same count and under the same terms, the figure for `CCN(C(=O)CCCN1CCN(c2csc3cc(C(F)(F)F)ccc23)CC1)C1CCCCC1` [compound 826809] is 30.5% Inh @ 1 uM; for `CC1(C)CCCN(C(=O)CCCN2CCN(c3csc4cc(C(F)(F)F)ccc34)CC2)C1` [compound 826817] it is 44.4% Inh @ 1 uM. On to `O=C(CCCN1CCN(c2csc3cc(C(F)(F)F)ccc23)CC1)NC1CCCCC1` [compound 826821], for which the “halpha1 % I h=human” value (@ 0.1 nM) came out at 24% Inh @ 0.1 nM. Consider `CC1CCCN(C(=O)CCCN2CCN(c3csc4cc(F)ccc34)CC2)C1` (stereo not shown) [compound 826855], for which, under “human alpha-1 receptor, read-out: halpha1Ki (nM) h=human”, the Ki is 0.689 nM.
